Experimental data published in patent publication US20240285765A1, “PHTHALOCYANINE DYE COMPOUNDS, CONJUGATES AND METHODS OF USE THEREOF” (Rakuten Medical, Inc., priority 2021, published 2024).
Where two headings read alike, the source gives them in different places.

How the values were obtained:
[1] = Thermodynamic solubility in pH 7.4 DPBS, UV quantification; format: physicochemical; conditions: Dulbecco's phosphate-buffered saline (DPBS), aqueous buffer, thermodynamic from solid, room temperature (25° C.)
Protocol: A working 1 mM stock solution of the test compound in DMSO was prepared from a 10 mM DMSO stock solution. A spectrum scan from 220 nm to 1000 nm of this working solution was performed in a 96-well UV plate to identify the wavelength maxima. […] The selected stock solution was serially diluted in DMSO to confirm linearity and generate a seven to eight-point calibration curve. Of note, only linear points were considered in the curve.
The resulting solution was placed on a RotoSpin™ shaker at 50 rpm for 24 hours at room temperature (25° C.). The solution was then filtered using a 0.45 μm PVDF filter to remove any insoluble fraction of the compound. A 150 μL aliquot of the filtrate was taken for quantification using UV spectroscopy (POLARstar Omega BMG Plate Reader). The optical densities of the standard solutions and the test sample were acquired at the same wavelength maxima. The test sample concentration was calculated from its optical density using the linearity/calibration curve.

[2] = cited from earlier work
[3] = Kinetic (aqueous) solubility in pH 7.4 DPBS, UV quantification; conditions: kinetic; pH 7.4 DPBS, 4 hours, room temperature (25° C.)
[4] = Singlet oxygen quantum yield, indirect method with chemical quencher (DPBF or ADMA); format: physicochemical; conditions: quencher ADMA, aqueous media, 670 nm LED 5 mW/cm^2, reference AlPcSmix
From the text: Photogeneration quantum yields of singlet oxygen (ΦΔ) were obtained by an indirect method, using either diphenylisobenzofuran (DBPF) or anthracene-9,10-bis-methylmalonate (ADMA) as chemical quenchers in either N,N-dimethylformamide or aqueous media, respectively. Typically, a solution of the phthalocyanine and the quencher was irradiated with a red LED lamp (670 nm) at 5 mW/cm^2. The initial DPBF or ADMA concentrations were kept the same for both the reference and the test samples. The degradation of the DPBF band at 414 nm or ADMA at 401 nm was monitored in a Varian Cary® 50 UV-Vis spectrophotometer, every five seconds in the case of DPBF (up to 30 seconds) and every minute in the case of ADMA (up to five minutes). ZnPc (ΦΔ=0.67) and AlPcSmix (ΦΔ=0.42) were used as references in N,N-dimethylformamide or aqueous media, respectively.
The relative method shown by Eq. (1) was employed for calculations of the ΦΔ:
[formula] • where ΦΔ and ΦΔref are the ^1O2 generation quantum yields for the sample and reference, respectively, m and mref are the DPBF or ADMA photobleaching rates in the presence of the phthalocyanine of the invention and the reference, respectively, and I and Iref are the rates of light absorption by the phthalocyanine derivative and reference, respectively. Concentrations of the test compound and reference were chosen such that their respective absorptions at the irradiation wavelength were the same.

BxPC3 cells = test: Cell killing of free dye PIT, CellTox Green Cytotoxicity Assay; format: cell-based; conditions: BxPC3, 0-1 μg/mL free dye, 690 nm laser 64 J/cm2, 24 hours after light
Protocol: The PIT killing activity of free dyes were evaluated using the molecules synthesized as Example 12 and Example 13. BxPC3 cells (#CRL-1687, ATCC, Manassas VA) were plated, 5,000 cells per well, in RPMI-1640 media supplemented with 10% FBS and 1% Penicillin/Streptomycin (complete culture media) in a deep-well 96-well plate. Following overnight incubation at 37° C., the culture media were removed and the cells were incubated in 100 μL complete media with 1, 0.333, 0.111, 0.03704, 0.01235, 0.00412, 0.00137, or 0 μg/mL Example 12, Example 13, or IRDye 700DX carboxylate (control) for one hour at 4° C. […]
The effect of different treatment regimens on cell death was measured using the CellTox™ Green Cytotoxicity Assay (Cat No: G8742, Promega, Madison, WI). […] The CellTox™ Green fluorescence signal was measured at 24 hours after light treatment using a fluorescence plate reader. The cells were then lysed with diluted lysis solution (Cat No: G1821, Promega, Madison, WI), incubated at 37° C. for 30 minutes, and the CellTox™ Green fluorescence signal was measured again post-lysis. The percentages of dead cells were calculated by taking the ratio between background (1× CellTox™ Green in complete culture media without cells)-subtracted CellTox™ Green signal per well prior to and post lysis and multiplying the ratio by 100.

[5] = UV-Vis absorption spectra; format: physicochemical
Protocol: The UV-Vis absorption spectra of the compounds in either an organic solvent or aqueous media was recorded in a Varian Cary® 50 UV-Vis spectrophotometer. Compounds of the invention show absorption in the 600-800 nm region of the spectra.

| Compound | solubility thermodynamic at 24 h [1] [µg/mL] | Solubility* (kinetic solubility) [3] | ΦΔ (singlet oxygen quantum yield) [4] | cell death (cytotoxicity) following illumination (BxPC3 cells) | other results |
| --- | --- | --- | --- | --- | --- |
| C[Si](C)(CCCNC(=O)CCCCC(=O)O)O[Si-2]123(O[Si](C)(C)CCCNC(=O)C(CCC[N+](CCCS(=O)(=O)O)(CCCS(=O)(=O)O)CCCS(=O)(=O)O)CCC[N+](CCCS(=O)(=O)O)(CCCS(=O)(=O)O)CCCS(=O)(=O)O)n4c5c6ccccc6c4N=C4c6ccccc6C(=[N+]41)N=c1c4ccccc4c(n12)=NC1=[N+]3C(=N5)c2ccccc21.[Na+].[Na+].[Na+].[Na+].[Na+] [Example 20] | > 100 |  |  |  |  |
| AlPcSmix |  |  |  |  | ΦΔ of reference ([2]; reference in aqueous media): 0.42 |
| 3-((6-((λ^5-azaneyl)oxy)-6-oxohexyl)(3-(((λ5-azaneyl)oxy)sulfonyl)propyl)(3-(((19-(((3-(bis(3-(((λ5-azaneyl)oxy)sulfonyl)propyl)(3-sulfonatopropyl)ammonio)propyl)dimethylsilyl)oxy)-19H-6,11-(azeno)-17,21-(azeno[3]episoindoloazeno)benzo[7,8][1,3,5,10]tetraaza[2]silacycloundecino[4,3-a:11,1-a′]diisoindol-19-yl)oxy)dimethylsilyl)propyl)ammonio)propane-1-sulfonate [Example 12] |  | C (C: >100 μg/mL) | B (B: >0.5) | dose-dependent cytotoxicity |  |
| [Zn+2].c1ccc2c(c1)-c1nc-2nc2[n-]c(nc3nc([n-]c4nc(n1)-c1ccccc1-4)-c1ccccc1-3)c1ccccc21 [ZnPc] |  |  |  |  | ΦΔ of reference ([2]; reference in N,N-dimethylformamide): 0.67 |
| 4-((6-((λ5-azaneyl)oxy)-6-oxohexyl)(4-(((λ5-azaneyl)oxy)sulfonyl)butyl)(3-(((19-(((3-(bis(4-(((λ5-azaneyl)oxy)sulfonyl)butyl)(4-sulfonatobutyl)ammonio)propyl)dimethylsilyl)oxy)-19H-6,11-(azeno)-17,21-(azeno[3]episoindoloazeno)benzo[7,8][1,3,5,10]tetraaza[2]silacycloundecino[4,3-a:11,1-a′]diisoindol-19-yl)oxy)dimethylsilyl)propyl)ammonio)butane-1-sulfonate [Example 13] |  | C (C: >100 μg/mL) | B (B: >0.5) | dose-dependent cytotoxicity | maximum UV absorbance (UVmax) [5]: 677 nm; absorption at 690 nm relative to UVmax ([5]; wavelength 690 nm): approximately 50% |
| C[Si](C)(CCC[N+](CCCCS(=O)(=O)O)(CCCCS(=O)(=O)O)CCCCS(=O)(=O)O)O[Si-2]123(O[Si](C)(C)CCC[N+](CCCCS(=O)(=O)O)(CCCCS(=O)(=O)O)CCOCCOCCOCCOCCC(=O)O)n4c5c6ccccc6c4N=C4c6ccccc6C(=[N+]41)N=c1c4ccccc4c(n12)=NC1=[N+]3C(=N5)c2ccccc21.[Na+].[Na+].[Na+].[Na+] [Example 22, Sodium 2-((19-((dimethyl(3-(tris(4-sulfonatobutyl)ammonio)propyl)silyl)oxy)-19H-6,11-(azeno)-17,21-(azeno[3]episoindoloazeno)benzo[7,8][1,3,5,10]tetraaza[2]silacycloundecino[4,3-a:11,1-a′]diisoindol-19-yl)oxy)-2-methyl-6,6-bis(4-sulfonatobutyl)-9,12,15,18-tetraoxa-6-aza-2-silahenicosan-6-ium-21-oate] | > 100 |  |  |  |  |
